17 molecules from patent publication US20150246898A1, “METALLOENZYME INHIBITOR COMPOUNDS” (DOW AGROSCIENCES LLC, priority 2012, published 2015) can be followed below.

For one experiment, the system named is T. rubrum. Nature of the experiment: Minimum Inhibitory Concentration (MIC) (T. rubrum), CLSI M27-A2. It is filed as cell-based. Conditions: Trichophyton rubrum; about 50% growth reduction, approx. 96 h at 35 °C, RPMI+MOPS. The method, then: Compounds of the present disclosure were assessed for their ability to inhibit the growth of common strains of fungus, T. rubrum using a standardized procedure (CLSI M27-A2). Stock solutions of the test compounds and standards were prepared in DMSO at 1,600 μg/mL (T. rubrum). Eleven, serial, one-half dilutions of compounds were prepared in 96-well plates in RPMI+MOPS. The assay concentration ranges were 8-0.001 μg/mL (T. rubrum). Cell suspensions of T. rubrum were prepared and added to each well at concentrations of approximately 3.7×10^3 colony-forming-units per milliliter (cfu/mL). All testing was in duplicate. The inoculated plates were incubated for approximately 96 h at 35±1° C. At the completion of incubation the wells of each plate were evaluated visually for the presence of fungal growth. […] For voriconazole the MIC was the concentration which reduced T rubrum growth by 50% (per CLSI, M27-A2). For QC purposes C. krusei isolate ATCC 6258 (4.0×10^3 cfu/mL) was included in the VOR assay.

Experiment [1] relates to Septoria tritici (ATCC 26517). Nature of the experiment: Minimum Inhibitory Concentration (MIC) vs. Septoria tritici, CLSI-based microdilution. Conditions: Zymoseptoria tritici, ATCC26517, 168 h; MIC = 50% reduction in growth of S. tritici, 7 days at 22 °C, RPMI/MOPS, 1% DMSO; read-out: Septoria Rating (MIC). Type of experiment: cell-based. The method, then: Compounds of the present disclosure were assessed for their ability to inhibit the growth of a common strain of the fungal plant pathogen Septoria tritici (ATCC 26517) using a procedure based on a Clinical and Laboratory Standards Institute (CLSI) microdilution assay protocol for filamentous fungi. Stock solutions of the test compounds and standards were prepared in DMSO at 6400 μg/mL. Each stock solution was used to prepare a 2-fold dilution series ranging from 16 to 0.016 μg/mL (total of 11 compound concentrations) in RPMI-1640 (Roswell Park Memorial Institute) medium containing 3-(N-morpholino)propanesulfonic acid (MOPS) buffer and 2% DMSO. A 100 μL aliquot of the dilutions was added to columns 1 (16 μg/mL compound) through 11 (0.016 μg/mL compound) of a 96-well microtiter plate. This format was replicated in a second row of the microtiter plate. Thus, each microtiter plate could include 11 concentrations of four test or control compounds replicated twice. A 100 μL aliquot of RPMI-1640/MOPS/2% DMSO medium was added to column 12 (no compound control) of the microtiter plate. A fresh culture of S. tritici was used to prepare a solution of approximately 5×10^4 colony-forming units per milliliter (cfu/mL) in RPMI/MOPS medium without DMSO. A 100 μL aliquot of this solution was added to all 96 wells in the microtiter plate. […] In each case of Table 3 the Septoria rating scale is as follows: […]

For experiment [2], the system named is Puccinia recondita tritici = Puccinia triticina (PUCCRT). Nature of the experiment: Fungicidal activity vs. leaf rust on wheat plants (1-day protectant spray). It is filed as in vivo. Conditions: wheat (variety Yuma) sprayed at 50 ppm, inoculated next day, disease severity evaluated 7-9 days later, read-out: Puccinia Rating (% Disease Control @ 50 ppm). From the text:
Each pot contained 3-8 seedlings. These plants were sprayed until wet with the formulated test compounds. The compounds were formulated at 50 ppm in 10 vol. % acetone plus 90 vol. % Triton X water (deionized water 99.99 wt %+0.01 wt % Triton X100), giving a “formulated test compound.” Formulated test compounds were applied to plants using a turn table sprayer fitted with two opposing air atomization nozzles which delivered approximately 1500 L/ha of spray volume. On the following day, the leaves were inoculated with an aqueous spore suspension of Puccinia recondita tritici and the plants were kept in high humidity overnight to permit spores to germinate and infect the leaf. The plants were then transferred to a greenhouse until disease developed on untreated control plants. Disease severity was evaluated 7-9 days later, depending on the speed of disease development. In each case of Table 3, the Puccinia rating scale is as follows: […]

≈ marks a conversion by molar mass, not a printed value.

On to `OC(c1cncnc1)(c1ccc(F)cc1F)C(F)(F)c1ccc(Br)cn1` (racemic) [Example 1, 2-(5-bromopyridin-2-yl)-1-(2,4-difluorophenyl)-2,2-difluoro-1-(pyrimidin-5-yl)ethanol], for which the MIC in the experiment with T. rubrum was 0.125 µg/mL (≈ 0.292 µM); in experiment [1], 0.5 to 1.5 µg/mL (≈ 1.17 to 3.5 µM).
With `OC(c1cncnc1)(c1ccc(F)cc1F)C(F)(F)c1ccc(C#Cc2ccc(F)cc2)cn1` (racemic) [Example 2, 1-(2,4-difluorophenyl)-2,2-difluoro-2-(5-((4-fluorophenyl)ethynyl)pyridin-2-yl)-1-(pyrimidin-5-yl)ethanol], the MIC in the experiment with T. rubrum was 0.25 µg/mL (≈ 0.535 µM); in experiment [1] it was at most 0.5 µg/mL. In addition, the pest or weed control at 50 ppm in experiment [2] was in the range of 80 to 100%.
As to `OC(c1cncnc1)(c1ccc(F)cc1F)C(F)(F)c1ccc(OCc2ccc(Cl)cc2)cn1` (racemic) [Example 41], the MIC in experiment [1] was at most 0.5 µg/mL. Moreover, the pest or weed control at 50 ppm in experiment [2] is 80 to 100%.
The corresponding values for `COc1ccc(Oc2ccc(C(F)(F)C(O)(c3cncnc3)c3ccc(F)cc3F)nc2)cc1` (racemic) [Example 42] are 0.5 to 1.5 µg/mL (≈ 1.06 to 3.18 µM) and 80 to 100%.
In the case of `N#Cc1ccc(C#Cc2ccc(C(F)(F)C(O)(c3ccc(Cl)cc3)c3cncnc3)nc2)cc1` (racemic) [Example 43], the MIC in experiment [1] is at most 0.5 µg/mL. In addition, in experiment [2], the pest or weed control at 50 ppm was in the range of 60 to 79%.
The corresponding values for `OC(c1cncnc1)(c1ccc(F)cc1F)C(F)(F)c1ccc(Oc2cccc(Cl)c2)cn1` (racemic) [Example 47] are 0.5 to 1.5 µg/mL (≈ 1.05 to 3.15 µM) and 80 to 100%.
The corresponding values for `CC(C)(C)C(O)(c1cncnc1)C(F)(F)c1ccc(C#Cc2ccc(F)cc2)cn1` (racemic) [Example 48] are at most 0.5 µg/mL and below 40%.
On to `OC(c1cncnc1)(c1ccc(F)cc1F)C(F)(F)c1ccc(OCc2ccc(Cl)c(F)c2)cn1` (racemic) [Example 51], for which, in experiment [1], the MIC was 0.5 to 1.5 µg/mL (≈ 0.985 to 2.95 µM). The pest or weed control at 50 ppm in experiment [2] was 60 to 79%.
The corresponding values for `Nc1ccc(C#Cc2ccc(C(F)(F)C(O)(c3ccc(Cl)cc3)c3cncnc3)nc2)cc1` (racemic) [Example 55] are 0.5 to 1.5 µg/mL (≈ 1.08 to 3.24 µM) and below 40%.
On to `OC(c1cncnc1)(c1ccc(F)cc1F)C(F)(F)c1ccc(OCc2ccc(F)c(F)c2)cn1` (racemic) [Example 60], for which the MIC in experiment [1] was in the range of 0.5 to 1.5 µg/mL (≈ 1.02 to 3.05 µM). Also, in experiment [2], the pest or weed control at 50 ppm was in the range of 60 to 79%.
The corresponding values for `CC(C)(C)C(O)(c1cncnc1)C(F)(F)c1ccc(C#Cc2ccc(Cl)cc2)cn1` (racemic) [Example 62] are at most 0.5 µg/mL and below 40%.
The corresponding values for `CC(C)C(O)(c1cncnc1)C(F)(F)c1ccc(C#Cc2ccc(Cl)cc2)cn1` (racemic) [Example 64] are at most 0.5 µg/mL and below 40%.
In the case of `OC(c1cncnc1)(c1ccc(F)cc1F)C(F)(F)c1ccc(OCc2ccc(C(F)(F)F)cc2)cn1` (racemic) [Example 65], the minimum inhibitory concentration (MIC) in experiment [1] is at most 0.5 µg/mL. For the same molecule, in experiment [2], the pest or weed control at 50 ppm fell in the range of 80 to 100%.
The corresponding values for `CC(C)C(O)(c1cncnc1)C(F)(F)c1ccc(C#Cc2cccc(C#N)c2)cn1` (racemic) [Example 67] are at most 0.5 µg/mL and below 40%.
Regarding `OC(c1cncnc1)(C1CC1)C(F)(F)c1ccc(C#Cc2ccc(F)cc2)cn1` (racemic) [Example 70, 1-Cyclopropyl-2,2-difluoro-2-(5-((4-fluorophenyl)ethynyl)pyridin-2-yl)-1-(pyrimidin-5-yl)ethanol], the minimum inhibitory concentration (MIC) in experiment [1] was at most 0.5 µg/mL. Also, the pest or weed control at 50 ppm in experiment [2] lay in the range of 80 to 100%.
The corresponding values for `OC(c1cncnc1)(c1ccc(F)cc1F)C(F)(F)c1ccc(OCc2ccc(Cl)c(Cl)c2)cn1` (stereo not shown) [Example 52] are 0.5 to 1.5 µg/mL (≈ 0.954 to 2.86 µM) and 60 to 79%.
In turn, `C[C@@H](c1ncncc1F)[C@](O)(Cn1cncn1)c1ccc(F)cc1F` [Voriconazole, voriconazole, reference compound] gave an MIC in the experiment with T. rubrum of 0.062 µg/mL (≈ 0.177 µM).

Usually MIC stands for the lowest concentration that inhibits growth of the organism.
